Experimental data published in patent US9421193B2, “Benzothiazole derivatives and a use thereof for the treatment of cancer” (Korea Institute of Radiological & Medical Sciences, priority 2014, dated 2016).
pIC50: −log10 of the molar value.

Columns and labels:
3T3-L1 cells = assay: PPAR-γ ligand identification test: adipogenesis induction, Oil-Red-O staining; type: cell-based; conditions: 10 μM, about 48 hours
Description: The ability to induce adipogenesis of the compound PB11 of Example 3 and the compound PB01 of Example 5 was tested to identify whether the compounds PB11 and PB01 had activity of PPAR-γ ligands. 3T3-L1 cells (American Type Culture Collection, Manassas, Va.) were treated with 10 μM of the compounds PB11 or PB01 to induce adipogenesis. 3T3-L1 cells without any treatment, those treated with the same concentration of ciglitazone, and those treated with the same concentration of GW9662 (Cayman, Ann Arbor, Mich.) known as PPAR-γ ligand antagonist were used as control groups. After the induction of adipogenesis for about 48 hours, a degree of adipogenesis was identified by Oil-Red-O staining.
FIG. 1 illustrates the results of imaging degrees of adipogenesis via Oil-Red-O staining after the treatment of 3T3-L1 cells with control compounds and 10 μM of the compounds PB01 or PB11 of Examples 3 and 5 for about 48 hours to induce adipogenesis.

[1] = tested on: various cancer cell strains (A549, H460, MCF-7, T-470, LoVo, SW480, HL-60, K562); assay: Cancer cell growth inhibition, WST-1 cell viability; type: cell-based, human; conditions: for selectivity of cell growth inhibitory effect, cancer versus non-cancer cell strains: cancer cell strains vs MRC-5 and MRC-9; for growth inhibitory effects on various cancer cell strains: concentration of 50 μM, WST-1
Description: Cancer cell growth inhibitory effects of the compounds PB01 and PB11 of Examples 5 and 3 identified as PPAR-γ ligands were evaluated. Growth inhibitory effects of the compounds PB01 and PB11 of Examples 5 and 3 on various cancer cells, including human non-small cell lung cancer cell strains (A549, H460), breast cancer cell strains (MCF-7, T-470), colorectal cancer cell strains (LoVo, SW480), and leukocytes cancer cell strains (HL-60, K562) (American Type Culture Collection, Manassas, Va.), were evaluated using WST-1 method. About 5×10^3 cells per well of each type of cancer cell strains were portioned into a 96-well plate, and incubated with different concentrations of each of the compounds PB01 and PB11 of Examples 5 and 3 in 200 ul of a culture solution for 24 hours, 48 hours, and 72 hours. After the incubation for the different durations, 10 ul of a WST-1 solution was added to each well, followed by incubation at about 37° C. for about 1 hour. Absorbance at 450 nm was measured to determine cell viability.

[2] = tested on: non-small cell lung cancer cell strain A549; assay: Trypan blue live cell count (cell viability); type: cell-based, human; conditions: for cancer cell apoptosis effect: 50 μM; for cancer cell apoptosis effect with respect to concentration and incubation time: 10-50 uM, 8 to 72 hours, FIG. 3A; for pIC50: Homo sapiens, time taken to reach the IC50 48 hours
Description: (§1) Whether the cancer cell growth inhibitory effects of the compounds PB01 and PB11 on the non-small cell lung cancer cell strains is associated with apoptosis was investigated. The cell growth inhibitory effects were evaluated by a trypan blue assay, and cell shapes were observed using an inverted microscope. The shapes of cell nuclei were observed via Hoeschst 33342 staining. Degrees of inducing apoptosis were quantized by flow cytometry (fluorescent activated cell sorting (FACS)).
(§2) After about 5×10^3 cells per well of each of the human non-small cell lung cancer cell strains A549 and H460 were portioned into a 96-well plate, about 10 uM to about 50 uM of the compounds PB01 or PB11 in 200 ul of culture solution were added into the wells, and incubated for about 8 to 72 hours. Cells were collected from the incubation product, and centrifuged at about 2,000 rpm for 5 minutes. After removing a supernatant, the remaining cells were mixed with 1 mL of phosphate-buffered saline (PBS) to obtain a cell suspension, which was then mixed with an equal amount of 0.5% trypan blue (Gibco BRL), followed by treatment for about 1 minute. The number of live cells was counted using a phase-contrast) microscope. The live cell counting was repeated three times, and an average live cell count and a standard error were calculated using a Microsoft Excel program. Cell viability graphs with respect to compound concentration and incubation time were obtained. The same experiment was performed with 50 μM of the compound PB01, PB11 50 μM of the compound PB11, or 150 μM of the compound PB12 150 μM, and cell viability graphs with respect to compound concentration and incubation time were obtained.

[3] = tested on: non-small cell lung cancer cell strain H460; assay: Trypan blue live cell count (cell viability); type: cell-based, human; conditions: for cancer cell apoptosis effect: 50 μM; for cancer cell apoptosis effect with respect to concentration and incubation time: FIGS. 3A and 3B, PB12 at 150 μM; for pIC50: Homo sapiens, NCI-H460, time taken to reach the IC50 48 hours
Description: as §1, §2

[4] = tested on: non-small cell lung cancer cell strain H460; assay: Morphological changes, inverted microscope 200×; type: cell-based, human; conditions: 50 μM, 48 hours
Description: After the incubation along with 50 μM of the compounds PB01 or PB11 for 48 hours, morphological changes in the non-small cell lung cancer cell strain H460 were observed using an inverted microscope at a magnification of 200×.

[5] = tested on: non-small cell lung cancer cell strain A549; assay: Apoptosis ratio, Annexin V flow cytometry; type: cell-based, human; conditions: 50 μM, about 40 hours, FIG. 9A
Description: (§3) About 5×10^5 cells per well of each of the non-small cell lung cancer cell strains A549 and H460 were portioned into a 6-well plate and then incubated with the compounds PB01 or PB11 for about 40 hours in the same manner as described above. A cell layer was washed with PBS and then treated with trypsin-EDTA solution to isolate cells. The isolated cells were collected and stained with an Annexin V Flous Staining kit (available Roche Applied Science, Penzberg, Germany) in a dark condition for about 30 minutes. The stained cells were analyzed by flow cytometry using a FACScan™ (available from Becton Dicknson) to count the number of dead cells and then calculate an apoptosis ratio. The same experiment was performed with 50 μM of PB01, 50 μM of PB11, or 150 μM of PB12 in the same manner as described above. The graphs of cell viability with respect to compound concentration and incubation time obtained based on the experimental results are shown in FIGS. 9A and 9B.

[6] = tested on: non-small cell lung cancer cell strain H460; assay: Apoptosis ratio, Annexin V flow cytometry; type: cell-based, human; conditions: about 40 hours, 50 μM PB01, 50 μM PB11, 150 μM PB12, FIGS. 9A and 9B
Description: as §3

[7] = tested on: non-small cell lung cancer cell strain H460; assay: Radiation sensitivity measurement, colony formation; type: cell-based, human; conditions: 14 days
Description: About 500 cells of non-small cell lung cancer cell strain H460 were floated on each of 60-mm cell culture plates, and then incubated for about 24 hours. After the cells were stably fixed on the bottom of the cell culture plate, the cells were treated with ciglitazone (10 μM), PB01 (10 μM), or PB11 (5 μM, 10 μM), cultured for about 24 hours, and then irradiated with γ-radiation (3.2 Gy/min, Gammacell 3000; Atomic Energy of Canada, Ltd., Mississauga, ON, Canada) at doses of 2 Gy, 4 Gy, and 6 Gy. After incubation for 14 days, followed staining using a 1% crystal violet staining reagent solution (in methanol) to selectively count colonies having a diameter of about 0.5 mm or larger. SF (surviving fraction)=number of colonies formed/number of cells seeded×plating efficiency of the control group

Cc1noc(C)c1CSc1nc2ccc(NC(=O)C3CCC(=O)CC3)cc2s1 [PB11]
PPAR-γ ligand identification (3T3-L1 cells): found to be PPAR-γ ligands | ability to induce adipogenesis (3T3-L1 cells): high activity in adipogenesis induction | selectivity of cell growth inhibitory effect, cancer versus non-cancer cell strains [1]: selectively only on cancer cell strains | growth inhibitory effects on various cancer cell strains [1]: prominent | cancer cell apoptosis effect [2]: remarkable cancer cell apoptosis effects | cancer cell apoptosis effect with respect to concentration and incubation time [2]: improved cancer cell apoptosis effects with increases in concentration and incubation time | pIC50 [2]: 4.30 | cancer cell apoptosis effect [3]: remarkable cancer cell apoptosis effects | cancer cell apoptosis effect with respect to concentration and incubation time [3]: improved cancer cell apoptosis effects with increases in concentration and incubation time | pIC50 [3]: 4.30 | morphological changes [4]: lose adhesion with reduced density | apoptosis induction (Annexin V) [5]: kill the non-small cell lung cancer cells by inducing apoptosis | apoptosis induction (Annexin V) [6]: kill the non-small cell lung cancer cells by inducing apoptosis | effect as radiation sensitizer ([7]; 5 μM in combination with radiation at a dose of 4 Gy): significant effect as radiation sensitizers

COC1CCC(C(=O)Nc2ccc3nc(SCc4c(C)noc4C)sc3c2)CC1 (stereo not shown) [PB01]
PPAR-γ ligand identification (3T3-L1 cells): found to be PPAR-γ ligands | ability to induce adipogenesis (3T3-L1 cells): outstanding ability to induce adipogenesis | selectivity of cell growth inhibitory effect, cancer versus non-cancer cell strains [1]: selectively only on cancer cell strains | growth inhibitory effects on various cancer cell strains [1]: prominent | cancer cell apoptosis effect [2]: remarkable cancer cell apoptosis effects | cancer cell apoptosis effect with respect to concentration and incubation time [2]: improved cancer cell apoptosis effects with increases in concentration and incubation time | pIC50 [2]: 4.30 | cancer cell apoptosis effect [3]: remarkable cancer cell apoptosis effects | cancer cell apoptosis effect with respect to concentration and incubation time [3]: improved cancer cell apoptosis effects with increases in concentration and incubation time | pIC50 [3]: 4.30 | morphological changes [4]: lose adhesion with reduced density | apoptosis induction (Annexin V) [5]: kill the non-small cell lung cancer cells by inducing apoptosis | apoptosis induction (Annexin V) [6]: kill the non-small cell lung cancer cells by inducing apoptosis | effect as radiation sensitizer ([7]; 10 μM in combination with radiation at a dose of 4 Gy): significant effect as radiation sensitizers
